These results are taken from patent US9492425B2 (priority 2008, dated 2016).

The nature of series [1]: Solubility in different organic solvents (aliquot addition until dissolution). The format is physicochemical. On the procedure:
Solubility in different organic solvents was measured using the following protocol. Approximately 25 mg portions of genistein and crystalline genistein sodium dihydrate salt were placed in 48 different vials, separately. 5 volume aliquots of each solvent were added exclusively to a vial. Between each addition, the mixture was checked for dissolution and if no dissolution was apparent, the procedure was continued until dissolution was observed or when 50 volumes had been added.

Series [2] is described as follows: SuperSol 1000 kinetic and equilibrium solubility assay.
Method: Since both compounds form suspensions in pure deionized H2O, physicochemical properties were assessed from solutions of 100% EtOH as well as mixtures of dH2O and EtOH, specifically, EtOH 50/50 (vol/vol) and EtOH/dH2O 75/25 (vol/vol) according to European Pharmacopeia guidelines 01/2008, Section 2.9.3., Table 2.9.3.5. • The following parameters were measured: • t[MSS] defined as: Time from start of analysis to Maximum Solubilization Speed (min) • C[MSS] defined as: Early kinetic solubility as expressed as concentration at Maximum Solubilization Speed (mg×I^−1) • C[Eq] defined as: Late kinetic solubility as expressed as concentration at Equilibrium Kinetic Solubility (mg×I^−1) • t[Eq] defined as: Time from start of analysis to Equilibrium Kinetic solubility (min) • ΔC [CEq−CMSS] defined as: Difference in concentration between Early and Late Kinetic Solubility as defined above (mg×I^−1) • Δt [CEq−CMSS] defined as: Difference in time between Early and Late Kinetic Solubility endpoints (min) • MSS defined as: Maximum Solubility Speed defined by C[MSS]/t[Mss] (mg×I^−1×min^−1) • ISI defined as: Intrinsic Solubility Index defined by ΔC [CEq−CMSS]/Δt [CEq−CMSS] • The higher the ISI value, the faster the solubilization and the stronger the relative contribution of the late, intrinsic kinetic equilibrium solubility C[Eq]. • KSR defined as: Kinetic Solubility ratio given by C[MSS]/C[Eq]. • The KSR is the numerical ratio indicator of the relative contribution of the early kinetic Solubility to the Overall Late Kinetic Equilibrium Solubility. The higher the KSR Value, the stronger the relative contribution of the early kinetic solubility C[MSS].
Series [3] in a line: Aqueous solubility (slurry ca. 24 hours, filtered, HPLC-UV). Format: physicochemical. As to conditions: aqueous buffer, thermodynamic from solid. The method, then: Aqueous solubility was measured using the following protocol. Slurries of genistein and of crystalline genistein sodium dihydrate salt were made up in aqueous media in which pH was set at 4.5, 6.7, and 7.5, each slurry was shaken at ambient temperature for ca. 24 hours and then filtered using a 0.2 μm filter into a clean vial. The saturated solutions were then diluted and analyzed for API (genistein) content using N—Ac-DL-Methionine on a Chirobiotic T HPLC column and UV detector set at λmax=270 nm. The mobile phase was acetonitrile/water run in isocratic mode over a 30 minute period. The results are presented in Table 3, (BDL=below detection limits).
The aqueous solubility of crystalline genistein potassium salt dihydrate was measured using the protocol described in Example 1.7. Table 16 compares the aqueous solubilities of crystalline genistein potassium salt dihydrate with that of genistein.

The nature of series [4]: Gravimetric vapor sorption (GVS). As to conditions: for maximum of water adsorbed (GVS): 0-90% RH sorption cycle; for moisture change (GVS): between 20 and 70 RH % (typical working range of material). Format: physicochemical. On the procedure: Approximately 15 mg of sample was placed into a wire-mesh vapor sorption balance pan and loaded into an SMS intrinsic vapor sorption balance supplied (Surface Measurement Systems Instruments). The sample was then dried by maintaining a 0% humidity environment until no further weight change was recorded. Subsequently, the sample was then subjected to a ramping profile from 0-90% RH at 10% RH increments, maintaining the sample at each step until equilibration had been attained (99.5% step completion). Upon reaching equilibration, the % RH within the apparatus was ramped to the next step and the equilibration procedure repeated. After completion of the sorption cycle, the sample was then dried using the same procedure. The weight change during the sorption/desorption cycles were then monitored, allowing for the hygroscopic nature of the sample to be determined.

Series [5] in a line: Disproportionation study (slurry in distilled water ca. 48 hours, XRPD, pH of supernatant). Format: physicochemical. As to conditions: slurried in distilled water for ca. 48 hours. On the procedure:
A 50 mg sample of crystalline genistein sodium salt dihydrate was slurried in 250 μL distilled water for ca. 48 hours and then checked by XRPD for disproportionation. The pH of the supernatant was also measured using a Corning 240 pH meter. […] The pH of the supernatant after slurrying was 7.1.
A sample of crystalline genistein potassium salt dihydrate was slurried in distilled water for ca. 48 hours and then checked by XRPD for disproportionation. The pH of the supernatant was also measured using a Corning 240 pH meter. […] The pH of the supernatant liquid was 7.3 indicating no disproportionation.

Series [6] is described as follows: Stability study (80° C., 40° C./75 RH %, light; XRPD after 7 days). To be noted: 40° C./75 RH % for 7 days.
Method: Sample stability was tested at 80° C. for 7 days and at 40° C./75 RH % for 7 days. Observations such as color change were noted after 7 days and XRPD of samples were taken after 7 days to investigate any solid form change.
For series [7] the following is noted: male, Sprague-Dawley, rat, in vivo.
Method: (§1) Genistein and crystalline genistein sodium salt dihydrate were stored at room temperature under desiccant and protected from light. The dosing solutions were prepared fresh from powders on the day of dosing. The dosing solution for intravenous administration (IV) was prepared at 1 mg/mL (free acid) in 50:50 DMSO:saline. The dosing solutions for intraduodenal administration (ID) were prepared at 2 mg/mL (genistein free acid) in a 0.2% sodium carboxymethyl cellulose (Na CMC) solution in water.
(§2) The pharmacokinetics of genistein was evaluated in fasted male Sprague-Dawley rats. Each animal was fitted with a jugular vein cannula (JVC) for blood sampling. Animals intended for intravenous dosing were fitted with an additional JVC for dose administration. Animals intended for intraduodenal dosing were fitted with an intraduodenal cannula (IDC) for dose administration. Surgically modified animals were housed one per cage. All animals were supplied with a commercial rodent diet (LabDiet, Certified Rodent Diet #5002) ad libitum prior to study initiation. […]
(§3) Each blood sample was collected from the rats via a jugular vein cannula and placed into chilled polypropylene tubes containing sodium heparin as an anticoagulant. […] The total concentration of genistein in plasma samples were analyzed by LC-MS/MS after an overnight incubation with glucuronidase/arylsulfatase enzyme mixture. Pharmacokinetic parameters were calculated using the WinNonlin software.
(§4) An LC-MS/MS analytical method for the determination of genistein in rat plasma was developed. Prior to sample analysis, a standard curve was analyzed to determine the specificity, range, and linearity of the method. Total genistein in plasma samples was determined by pre-treating all samples with β-glucuronidase/arylsulfatase enzymes and incubating prior to analysis. […]
(§5) Individual plasma concentrations versus time data for genistein were subjected to non-compartmental analysis using the pharmacokinetic program WinNonlin v. […] Plasma concentrations below the limit of quantitation (10 ng/mL) were assigned a value of zero for PK analysis only.
A short description of series [8]: Comparative pharmacokinetic study of genistein and crystalline genistein sodium salt dihydrate, intraduodenal and intravenous. To be noted: rats.
Method: as §1, §2, §3, §4, §5

The Solubility is how much of the substance goes into solution per volume. The solubility is how much of the substance goes into solution per volume.

In the case of `O=c1c(-c2ccc(O)cc2)coc2cc(O)cc(O)c12` [Genistein, 4′,5,7-trihydroxyisoflavone-5,7-dihydroxy-3-(4-hydroxyphenyl)-4H-1-benzopyran-4-one, reference compound], the Solubility in series [1] (1,4-dioxane) was less than 10.3 mg/mL; in series [1] (Acetone/Water (50:50)), less than 10.1 mg/mL; in series [1] (Acetonitrile (MeCN)) it was less than 10.1 mg/mL; in series [1] (Cyclohexane), less than 10.7 mg/mL; in series [1] (Dichloromethane (DCM)), less than 10.3 mg/mL; in series [1] (Diisopropylether (DIPE)), less than 10.6 mg/mL. Further, the Solubility in series [1] (Ethanol (EtOH)) was less than 10.8 mg/mL; in series [1] (Methanol (MeOH)) it was less than 10.6 mg/mL; in series [1] (Methyl acetate (MeOAc)) it was less than 10.3 mg/mL; in series [1] (Methyl isobutyl ketone (MIBK)), less than 10.1 mg/mL; in series [1] (Methylethyl ketone (MEK)) it was less than 10.8 mg/mL; in series [1] (Toluene), less than 10.1 mg/mL. Besides, the Solubility in series [1] (Toluene/Dioxane (50:50)) was less than 10.1 mg/mL. The “C[Eq]” value came out at 13.79 mg×I^−1 in series [2] (EtOH 100%), 12.87 mg×I^−1 in series [2] (EtOH/dH2O 50/50 (vol/vol)) and 14.03 mg×I^−1 in series [2] (EtOH/dH2O 75/25 (vol/vol)). Also, the “C[MSS]” value is listed as 5.81 mg×I^−1 in series [2] (EtOH 100%), 7.43 mg×I^−1 in series [2] (EtOH/dH2O 50/50 (vol/vol)) and 8.52 mg×I^−1 in series [2] (EtOH/dH2O 75/25 (vol/vol)). The values for the ISI in series [2] (EtOH 100%), in series [2] (EtOH/dH2O 50/50 (vol/vol)) and in series [2] (EtOH/dH2O 75/25 (vol/vol)) were 2.11, 1.55 and 1.49, respectively. Further, the KSR in series [2] (EtOH 100%) amounted to 0.42; in series [2] (EtOH/dH2O 50/50 (vol/vol)) it was 0.58; in series [2] (EtOH/dH2O 75/25 (vol/vol)), 0.61. Besides, the figures for the “KSR, assessment in words” value in series [2] (EtOH 100%), in series [2] (EtOH/dH2O 50/50 (vol/vol)) and in series [2] (EtOH/dH2O 75/25 (vol/vol)) were “acceptable”, “acceptable” and “good”, respectively. In addition, the results for the MSS in series [2] (EtOH 100%), in series [2] (EtOH/dH2O 50/50 (vol/vol)) and in series [2] (EtOH/dH2O 75/25 (vol/vol)) were 23.81 mg×I^−1×min^−1, 12.18 mg×I^−1×min^−1 and 19.67 mg×I^−1×min^−1, respectively. Besides, the “MSS, assessment in words” value in series [2] (EtOH 100%), in series [2] (EtOH/dH2O 50/50 (vol/vol)) and in series [2] (EtOH/dH2O 75/25 (vol/vol)) was “good” in each case. The “ΔC [C, − CMSS]” value in series [2] (EtOH 100%) turned out to be 7.98 mg×I^−1. Besides, the results for the “ΔC [CEq − CMSS]” value in series [2] (EtOH/dH2O 50/50 (vol/vol)) and in series [2] (EtOH/dH2O 75/25 (vol/vol)) were 5.44 mg×I^−1 and 5.51 mg×I^−1, respectively.
In series [3] (Water/slurry pH 4.5, ambient temperature), `O.O.O=c1c(-c2ccc(O)cc2)coc2cc(O)cc(O)c12.[K]` [genistein potassium salt dihydrate] yielded a solubility at 24 h of 0.04 mg/mL. In addition, in series [3] (Water/slurry pH 6.7, ambient temperature), the solubility at 24 h is 0.057 mg/mL. In series [3] (Water/slurry pH 7.5, ambient temperature), this compound had a solubility at 24 h of 0.069 mg/mL. Moreover, in series [4], the “maximum of water adsorbed (GVS)” value was determined as 16 wt % and the “moisture change (GVS)” value is “ca. 3%”. In addition, in series [5], the “disproportionation (XRPD)” value is “No signs of disproportionation” and the “pH of the supernatant after slurrying” value came to 7.3.
On to `O=c1c(-c2ccc(O)cc2)coc2cc(O)cc(O)c12.[K]` [genistein potassium salt], for which the “stability, solid form change by XRPD” value in series [6] was “crystallizes to form genistein potassium salt dihydrate”.
Turning to `O.O.O=c1c(-c2ccc(O)cc2)coc2cc(O)cc(O)c12.[Na]` [genistein sodium salt dihydrate], the “mean peak plasma concentration (Cmax) fold higher compared to genistein” value in series [7] is on record as 4.2 fold. Further, the Solubility was less than 10.6 mg/mL in series [1] (1,4-dioxane); 20.2 mg/mL in series [1] (Acetone/IPA (50:50)); less than 10.4 mg/mL in series [1] (Acetonitrile (MeCN)); less than 10.9 mg/mL in series [1] (Cyclohexane); less than 10.8 mg/mL in series [1] (Dichloromethane (DCM)); less than 9.7 mg/mL in series [1] (Diisopropylether (DIPE)). The Solubility was less than 9.9 mg/mL in series [1] (Heptane); less than 8.8 mg/mL in series [1] (Methanol (MeOH)); less than 9.0 mg/mL in series [1] (Methyl isobutyl ketone (MIBK)); less than 11 mg/mL in series [1] (Octanol); less than 10.4 mg/mL in series [1] (Tetrahydrofuran (THF)); less than 9.9 mg/mL in series [1] (Toluene). This compound gave a Solubility in series [1] (Toluene/Dioxane (50:50)) of less than 9.7 mg/mL. Moreover, the “C[Eq]” value turned out to be 11.20 mg×I^−1 in series [2] (EtOH 100%), 17.40 mg×I^−1 in series [2] (EtOH/dH2O 50/50 (vol/vol)) and 15.86 mg×I^−1 in series [2] (EtOH/dH2O 75/25 (vol/vol)). The figures for the “C[MSS]” value in series [2] (EtOH 100%), in series [2] (EtOH/dH2O 50/50 (vol/vol)) and in series [2] (EtOH/dH2O 75/25 (vol/vol)) were 10.85 mg×I^−1, 14.67 mg×I^−1 and 11.20 mg×I^−1, respectively. Also, the ISI in series [2] (EtOH 100%) turned out to be 0.07; in series [2] (EtOH/dH2O 50/50 (vol/vol)), 0.60; in series [2] (EtOH/dH2O 75/25 (vol/vol)), 1.26. Also, the KSR in series [2] (EtOH 100%) turned out to be 0.97; in series [2] (EtOH/dH2O 50/50 (vol/vol)) it was 0.84; in series [2] (EtOH/dH2O 75/25 (vol/vol)), 0.71. Also, the “KSR, assessment in words” value in series [2] (EtOH 100%), in series [2] (EtOH/dH2O 50/50 (vol/vol)) and in series [2] (EtOH/dH2O 75/25 (vol/vol)) was “excellent” each time. For the same compound, the results for the MSS in series [2] (EtOH 100%), in series [2] (EtOH/dH2O 50/50 (vol/vol)) and in series [2] (EtOH/dH2O 75/25 (vol/vol)) were 36.90 mg×I^−1×min^−1, 20.66 mg×I^−1×min^−1 and 37.33 mg×I^−1×min^−1, respectively. For the same compound, the “MSS, assessment in words” value in series [2] (EtOH 100%), in series [2] (EtOH/dH2O 50/50 (vol/vol)) and in series [2] (EtOH/dH2O 75/25 (vol/vol)) was “excellent” throughout. Also, the “ΔC [C, − CMSS]” value in series [2] (EtOH 100%) came out at 0.35 mg×I^−1. For the same compound, the figures for the “ΔC [CEq − CMSS]” value in series [2] (EtOH/dH2O 50/50 (vol/vol)) and in series [2] (EtOH/dH2O 75/25 (vol/vol)) were 2.73 mg×I^−1 and 4.66 mg×I^−1, respectively. Besides, the “maximum of water adsorbed (GVS)” value in series [4] was 45 wt %. Besides, the “moisture change (GVS)” value in series [4] is listed as “ca. 2%”. In series [5], the “disproportionation (XRPD)” value is reported as “No signs of disproportionation”. The “pH of the supernatant after slurrying” value in series [5] is 7.1. In addition, in series [8] (intraduodenal dosing, mean plasma profile (FIG. 13)), the “time after ID dosing at which maximum plasma concentration (Cmax) was observed” value was not above 15 min. The “pharmacokinetic profile following IV dosing, compared with genistein” value in series [8] (intravenous 1 mg/kg) was “not significantly different”.
